Experimental findings from patent US20050171358A1 (priority 2002, published 2005) are described below.

For assay [1], the system named is Pyricularia oryzae. In kind it is in vivo. To be noted: 200 ppm spray on rice (Koshihikari, 3 leaf stage), inoculated next day; lesion numbers on third leaves after 7 days in green house, graded by Table 5.
For assay [2], the system named is Colletotrichum lagenarium. To be noted: 200 ppm spray on cucumber (3 leaf stage), inoculated next day; lesion numbers on first and second leaves after 7 days in green house, graded by Table 5.

`CN(C(=O)NCc1cc(-c2ccccc2)no1)c1ccccc1` [II-12, 3-[(3-phenyl-5-isoxazolyl]methyl]-1-methyl-1-phenyl urea]: the “Evaluation (effect for rice blast)” value in assay [1] was 4 (1˜5). Moreover, the “Evaluation (effect for cucumber anthracnose)” value in assay [2] is 4 (1˜5).
Consider `O=C(NCc1cc(-c2ccccc2)no1)OCc1ccccc1` [I-41, benzyl [(3-phenyl-5-isoxazolyl)methyl]carbamate], for which, in assay [1], the “Evaluation (effect for rice blast)” value is 3 (6˜10). For the same molecule, the “Evaluation (effect for cucumber anthracnose)” value in assay [2] is recorded as 4 (1˜5).
Taken in the same sequence, the figures for `COc1ccc(C(=O)NCc2cc(C(=O)Nc3ccc(C#N)cc3)no2)cc1` [IV-97, N-{[3-(4-cyanophenyl)aminocarbonyl-5-isoxazolyl]methyl}-4-methoxybenzamide] were 5 (0) and 5 (0).
Taken in the same sequence, the figures for `COc1ccc(C(=O)NCc2cc(C(C)C)no2)cc1` [III-225, N-[(3-isopropyl-5-isoxazolyl)methyl]-4-methoxybenzamide] were 4 (1˜5) and 4 (1˜5).
Taken in the same sequence, the figures for `O=C(NCc1cc(C2CCCCC2)no1)Oc1ccccc1` [I-6, phenyl[(3-cyclohexyl-5-isoxazolyl)methyl]carbamate] were 5 (0) and 5 (0).
Consider `COc1ccc(-c2cc(CNC(=O)c3ccc(C)cc3)on2)c(F)c1` [III-74, N-{[3-(2-fluoro-4-methoxyphenyl)-5-isoxazolyl]methyl}-4-methylbenzamide], for which the “Evaluation (effect for rice blast)” value in assay [1] is 5 (0). The “Evaluation (effect for cucumber anthracnose)” value in assay [2] was 5 (0).
As for `O=C(NCc1cc(Cc2ccccc2)no1)NC1CCCC1` [II-14, 1-[(3-benzyl-5-isoxazolyl)methyl]-3-cyclopentylurea], the “Evaluation (effect for rice blast)” value in assay [1] is on record as 4 (1˜5). Further, in assay [2], the “Evaluation (effect for cucumber anthracnose)” value was 5 (0).
Turning to `O=C(/C=C/c1ccccc1)NCc1cc(COc2ccccc2)no1` [IV-99, N-[(3-phenoxymethyl-5-isoxazolyl)methyl]-β-phenylacrylamide], the “Evaluation (effect for rice blast)” value in assay [1] is on record as 4 (1˜5). In addition, the “Evaluation (effect for cucumber anthracnose)” value in assay [2] is 4 (1˜5).
In the case of `COc1ccc(Cc2cc(CNC(=O)c3ccc(OC)cc3)on2)cc1` [IV-9, N-{[3-(4-methoxybenzyl)-5-isoxazolyl]methyl}-4-methoxybenzamide], the “Evaluation (effect for rice blast)” value in assay [1] is 5 (0). In assay [2], the “Evaluation (effect for cucumber anthracnose)” value is given as 5 (0).
On to `COc1ccc(C(=O)NCc2cc(C(=O)Nc3ccc(C)cc3)no2)cc1` [IV-108, N-{[3-(4-tolyl)aminocarbonyl-5-isoxazolyl]methyl}-4-methoxybenzamide], for which, in assay [1], the “Evaluation (effect for rice blast)” value was 2 (11˜20). The “Evaluation (effect for cucumber anthracnose)” value in assay [2] is 2 (11˜20).
In the case of `COc1ccc(C(=O)NCc2cc(COc3ccc(C#N)cc3)no2)cc1` [IV-53, N-([3-(4-cyanophenyl)oxymethyl-5-isoxazolyl]methyl}-4-methoxybenzamide], the “Evaluation (effect for rice blast)” value in assay [1] is reported as 5 (0). Further, the “Evaluation (effect for cucumber anthracnose)” value in assay [2] is given as 5 (0).
Take `CC(C)c1cc(CNC(=O)c2ccccc2)on1` [III-4, N-[(3-isopropyl-5-isoxazolyl)methyl]benzamide]: the “Evaluation (effect for rice blast)” value in assay [1] is 3 (6˜10). Further, in assay [2], the “Evaluation (effect for cucumber anthracnose)” value was 4 (1˜5).
For `Cc1cc(CNC(=O)NC2CCCCC2)on1` [II-108, 3-(3-methyl-5-isoxazolyl)methyl-1-cyclohexylurea] the same measures were 1 (21˜41) and 2 (11˜20).
On to `COc1ccccc1C(=O)NCc1cc(-c2ccccc2)no1` [III-109, N-[(3-phenyl-5-isoxazolyl)methyl]-2-methoxybenzamide], for which the “Evaluation (effect for rice blast)” value in assay [1] was 4 (1˜5). For the same molecule, the “Evaluation (effect for cucumber anthracnose)” value in assay [2] is 5 (0).
In the case of `C/C=C/C=C/c1cc(CNC(=O)c2ccc(OC)cc2)on1` [III-221, N-{[3-(1,3-pentadienyl)-5-isoxazolyl]methyl}-4-methoxylbenzamide], in assay [1], the “Evaluation (effect for rice blast)” value is on record as 2 (11˜20). Also, the “Evaluation (effect for cucumber anthracnose)” value in assay [2] is 2 (11˜20).
For `COc1ccc(C(=O)NCc2cc(C(=O)NC(C)(C)C)no2)cc1` [IV-119, N-[(3-tert-butylaminocarbonyl-5-isoxazolyl)methyl]-4-methoxybenzamide], in assay [1], the “Evaluation (effect for rice blast)” value is 2 (11˜20). Further, the “Evaluation (effect for cucumber anthracnose)” value in assay [2] is 3 (6˜10).
As for `O=C(NCc1cc(COc2ccccc2)no1)C1CCCCC1` [IV-121, N-[(3-phenoxymethyl-5-isoxazolyl)methyl)cyclohexanecarboxamide], the “Evaluation (effect for rice blast)” value in assay [1] is reported as 4 (1˜5). Moreover, the “Evaluation (effect for cucumber anthracnose)” value in assay [2] is 4 (1˜5).
For the molecule `COc1ccc(C(=O)NCc2cc(COc3ccccc3OC)no2)cc1` [IV-54, N-{[3-(2-methoxyphenyl)oxymethyl-5-isoxazolyl]methyl}-4-methoxybenzamide], the “Evaluation (effect for rice blast)” value in assay [1] was 3 (6˜10). Moreover, the “Evaluation (effect for cucumber anthracnose)” value in assay [2] is given as 4 (1˜5).
Taken in the same sequence, the figures for `COc1ccc(C(=O)NCc2cc(COc3ccccc3F)no2)cc1` [IV-57] were 5 (0) and 5 (0).
With `COc1ccc(C(=O)NCc2cc(-c3ccccc3)no2)cc1` [III-111, N-[(3-phenyl-5-isoxazolyl)methyl]-4-methoxy benzamide], in assay [1], the “Evaluation (effect for rice blast)” value is reported as 5 (0). The “Evaluation (effect for cucumber anthracnose)” value in assay [2] is 5 (0).
In the case of `CC(c1ccccc1)c1cc(CNC(=O)c2ccccc2)on1` (stereo not drawn) [IV-29, N-{[3-(1-phenylethyl)-5-isoxazolyl]methyl}benzamide], in assay [1], the “Evaluation (effect for rice blast)” value is given as 3 (6˜10). In addition, in assay [2], the “Evaluation (effect for cucumber anthracnose)” value is on record as 3 (6˜10).
Regarding `CC(C)(C)c1ccc(C(=O)NCc2cc(-c3ccccc3)no2)cc1` [III-108, N-[(3-phenyl-5-isoxazolyl)methyl]-4-t-butylbenzamide], the “Evaluation (effect for rice blast)” value in assay [1] is 2 (11˜20). For the same molecule, the “Evaluation (effect for cucumber anthracnose)” value in assay [2] is 3 (6˜10).
Taken in the same sequence, the figures for `Cc1ccc(C(=O)NCc2cc(-c3ccc(F)cc3)no2)cc1` [III-31, N-{[3-(4-fluorophenyl)-5-isoxazolyl]methyl}-4-methylbenzamide] were 5 (0) and 5 (0).
Turning to `COc1ccc(C(=O)NCc2cc(-c3ccccc3)no2)cc1OC` [III-156, N-[(3-phenyl-5-isoxazolyl)methyl]-3,4-dimethoxybenzamide], in assay [1], the “Evaluation (effect for rice blast)” value is given as 4 (1˜5). In addition, in assay [2], the “Evaluation (effect for cucumber anthracnose)” value is listed as 4 (1˜5).
For the molecule `Cc1ccc(C(=O)NCc2cc(CSc3ccccc3)no2)cc1` [IV-40, N-[(3-phenylthiomethyl-5-isoxazolyl)methyl]-4-methylbenzamide], the “Evaluation (effect for rice blast)” value in assay [1] was 3 (6˜10). Besides, the “Evaluation (effect for cucumber anthracnose)” value in assay [2] was 2 (11˜20).
For `COc1ccc(C(=O)NCc2cc(-c3ccc(C)o3)no2)cc1` [III-247, N-{[3-(2-methylfuran-5-yl)-5-isoxazolyl]methyl}-4-methoxybenzamide] the same measures were 5 (0) and 5 (0).
In the case of `CCC(CC)c1cc(CNC(=O)c2ccc(OC)cc2)on1` [III-230, N-{[3-(1-ethylpropyl)-5-isoxazolyl]methyl}-4-methoxybenzamide], in assay [1], the “Evaluation (effect for rice blast)” value was 5 (0). The “Evaluation (effect for cucumber anthracnose)” value in assay [2] is given as 5 (0).
Regarding `COc1ccc(-c2cc(CNC(=O)c3ccccc3)on2)cc1OC` [III-67, N-{[3-(3,4-dimethoxyphenyl)-5-isoxazolyl]methyl}benzamide], the “Evaluation (effect for rice blast)” value in assay [1] is listed as 5 (0). For the same molecule, the “Evaluation (effect for cucumber anthracnose)” value in assay [2] is reported as 5 (0).
Regarding `O=C(NCc1cc(Cc2ccccc2)no1)C1CCCCC1` [IV-4, (3-benzyl-5-isoxazolyl)methylaminocarbonylcyclohexane], in assay [1], the “Evaluation (effect for rice blast)” value was 4 (1˜5). Also, in assay [2], the “Evaluation (effect for cucumber anthracnose)” value is 4 (1˜5).
As for `Cc1ccc(C(=O)NCc2cc(CC(C)C)no2)cc1` [III-251, N-[(3-isobutyl-5-isoxazolyl)methyl]-4-methylbenzamide], the “Evaluation (effect for rice blast)” value in assay [1] was 5 (0). Besides, the “Evaluation (effect for cucumber anthracnose)” value in assay [2] is 5 (0).
As for `CO/N=C/c1ccc(-c2cc(CNC(=O)c3ccc(C)cc3)on2)cc1` [III-214], the “Evaluation (effect for rice blast)” value in assay [1] is recorded as 4 (1˜5). Further, the “Evaluation (effect for cucumber anthracnose)” value in assay [2] is 5 (0).
Turning to `O=C(NCc1cc(COc2ccccc2)no1)c1cc(Cl)nc(Cl)c1` [IV-122, N-[(3-phenoxymethyl-5-isoxazolyl)methyl]-2,6-dichloropyridine-4-carboxamide], the “Evaluation (effect for rice blast)” value in assay [1] is on record as 3 (6˜10). For the same molecule, the “Evaluation (effect for cucumber anthracnose)” value in assay [2] is given as 2 (11˜20).
For the molecule `Cc1ccc(-c2cc(CNC(=O)c3cc(Cl)nc(Cl)c3)on2)cc1` [III-240, N-{[3-(4-tolyl)-5-isoxazolyl]methyl}-2,6-dichloropyridine-4-carboxamide], the “Evaluation (effect for rice blast)” value in assay [1] was 2 (11˜20). Further, in assay [2], the “Evaluation (effect for cucumber anthracnose)” value was 2 (11˜20).
Take `COc1ccc(NC(=O)c2cc(CNC(=O)c3ccc(OC)cc3)on2)cc1` [IV-94, N-{[3-(4-methoxyphenyl)aminocarbonyl-5-isoxazolyl]methyl}-4-methoxybenzamide]: the “Evaluation (effect for rice blast)” value in assay [1] was 2 (11˜20). In addition, in assay [2], the “Evaluation (effect for cucumber anthracnose)” value is on record as 3 (6˜10).
Taken in the same sequence, the figures for `O=C(NCc1cc(C(=O)Nc2ccccc2)no1)c1ccc(Cl)cc1` [IV-114, N-[(3-phenylaminocarbonyl-5-isoxazolyl)methyl]-4-chlorobenzamide] were 5 (0) and 5 (0).
Take `CCCc1cc(CNC(=O)c2ccc(Cl)cc2Cl)on1` [III-265, N-[(3-propyl-5-isoxazolyl)methyl]-2,4-dichlorobenzamide]: the “Evaluation (effect for rice blast)” value in assay [1] is recorded as 5 (0). For the same molecule, the “Evaluation (effect for cucumber anthracnose)” value in assay [2] is 4 (1˜5).
